Source: patent publication US20100130738A1 (priority 2007, published 2010)

Key:
[1] = system: histamine-induced bronchoconstriction in guinea pigs; assay: Histamine-induced bronchoconstriction reaction in guinea pigs; type: in vivo, guinea pig; conditions: Cavia porcellus, iv, 0.5 min, compound 0.3 mg/kg i.v., measured 30 seconds after administration, histamine 12.5 μg/kg i.v., read-out: Inhibition rate (histamine-induced bronchoconstriction)
Description: Guinea pigs were anesthetized with pentobarbital (30 mg/kg, i.p.). A cannula for intravenous administration, a cannula for collecting blood and measuring blood pressure, and a tracheal cannula were inserted into the left external jugular vein, right internal carotid artery, and trachea, respectively. The guinea pigs were maintained on artificial respiration under conditions of 60 times/min and 10 mL/kg/stroke. The overflowing air from the side branch of the tracheal cannula was measured by a bronchospasm transducer (Ugo-Basile) and recorded on a computer via Power Lab (ADInstruments Japan). The guinea pigs were immobilized with gallamine (10 mg/kg, i.v.), and histamine (12.5 μg/kg, i.v.) was administered at 10-minute intervals. After the histamine-induced bronchoconstriction became stable, the compound (0.3 mg/kg, i.v.) was administered. The histamine-induced bronchoconstriction reaction was measured 30 seconds after the compound administration to examine the bronchoconstriction inhibitory activity of the compound. The bronchoconstriction was recorded as the airflow value, and the results were represented by the ratio of the maximum value of the histamine-induced airflow 30 seconds after administration to the maximum value of the airflow before administration. Also, the test compounds dissolved in DMSO were used. Further, the indications were as follows: inhibition rate≧90% (+++), 90%>inhibition rate≧80% (++), and 80%>inhibition rate≧60% (+).

[2] = target: T1, PDE3A catalytic domain (PDE3Acat) (Homo sapiens, UniProt Q14432); assay: Phosphodiesterase inhibitory activity, recombinant PDE3Acat, [3H]cAMP; type: biochemical; conditions: 30° C. 20 minutes, read-out: IC50 (μmol/L) PDE3
T1 construct: isolate the cDNA of a PDE3A catalytic domain; made in house; host or cells: Sf9 insect cells (baculovirus, Bac-to-Bac / Gateway)
T1 sequence (Q14432 674-1093 limits assumed): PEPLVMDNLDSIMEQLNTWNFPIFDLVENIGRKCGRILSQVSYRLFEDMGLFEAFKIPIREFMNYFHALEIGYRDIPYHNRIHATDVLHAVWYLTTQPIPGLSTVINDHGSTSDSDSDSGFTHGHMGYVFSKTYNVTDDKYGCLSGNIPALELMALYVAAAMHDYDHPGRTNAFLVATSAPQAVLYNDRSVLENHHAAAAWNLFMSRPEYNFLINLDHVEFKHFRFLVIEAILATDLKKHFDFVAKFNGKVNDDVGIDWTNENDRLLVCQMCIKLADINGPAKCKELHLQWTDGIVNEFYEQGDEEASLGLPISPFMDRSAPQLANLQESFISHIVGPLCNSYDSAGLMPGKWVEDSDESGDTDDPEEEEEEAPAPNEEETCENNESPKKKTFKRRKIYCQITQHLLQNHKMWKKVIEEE

PDE4Bcat = target: T2, PDE4Bcat (Homo sapiens, UniProt Q07343); assay: Phosphodiesterase inhibitory activity, recombinant PDE4Bcat, [3H]cAMP; type: biochemical; conditions: 30° C. 20 minutes, read-out: IC50 (μmol/L) PDE4
T2 construct: made in house; host or cells: Sf9 insect cells (baculovirus, Bac-to-Bac / Gateway)
T2 sequence (Q07343 330-659 limits assumed): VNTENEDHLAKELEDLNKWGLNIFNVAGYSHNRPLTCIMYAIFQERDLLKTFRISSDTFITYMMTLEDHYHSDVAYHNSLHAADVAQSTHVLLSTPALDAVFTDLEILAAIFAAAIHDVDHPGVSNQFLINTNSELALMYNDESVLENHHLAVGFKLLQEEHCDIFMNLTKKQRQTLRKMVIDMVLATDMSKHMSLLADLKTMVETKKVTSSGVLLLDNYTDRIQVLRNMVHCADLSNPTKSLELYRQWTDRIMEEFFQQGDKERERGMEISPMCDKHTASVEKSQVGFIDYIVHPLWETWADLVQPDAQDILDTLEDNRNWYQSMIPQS

Structure (SMILES) | inhibition in vivo at 0.3 mg/kg [1] | IC50 [2] | IC50 (PDE4Bcat)
CCc1ccc2c(C3=NN(CCCCOc4ccc(C5=NNC(=O)CC5)c(F)c4F)C(=O)C3(C)C)ccc(OC)c2n1 [Example 198, 5-(2-Ethyl-8-methoxyquinolin-5-yl)-2-[4-[2,3-difluoro-4-(6-oxo-1,4,5,6-tetrahydropyridazin-3-yl)phenoxy]butyl]-4,4-dimethyl-2,4-dihydro-pyrazol-3-one] | ≥ 90% | < 0.01 µmol/L | 0.01 to 0.1 µmol/L
COc1ccc(C2=NN(CCCCOc3ccc(C4=NNC(=O)CC4C)cc3)C(=O)C2(C)C)c2cccnc12 (stereo not drawn) [Example 212, 5-(8-Methoxyquinolin-5-yl)-2-[4-[4-(4-methyl-6-oxo-1,4,5,6-tetrahydropyridazin-3-yl)phenoxy]butyl]-4,4-dimethyl-2,4-dihydro-pyrazol-3-one] | ≥ 90% | < 0.01 µmol/L | 0.01 to 0.1 µmol/L
COc1ccc(C2=NN(CCCCOc3ccc(C4=NNC(=O)CC4)c(F)c3F)C(=O)C2(C)C)c2cc(C(F)(F)F)oc12 [Example 216, 2-[4-[2,3-Difluoro-4-(6-oxo-1,4,5,6-tetrahydropyridazin-3-yl)phenoxy]butyl]-5-(7-methoxy-2-trifluoromethylbenzofuran-4-yl)-4,4-dimethyl-2,4-dihydro-pyrazol-3-one] | – | < 0.01 µmol/L | < 0.01 µmol/L
CCc1ccc2c(C3=NN(CCCCOc4ccc(C5=NNC(=O)CC5)cc4)C(=O)C3(C)C)ccc(OC)c2n1 [Example 200, 5-(2-Ethyl-8-methoxyquinolin-5-yl)-2-[4-[4-(6-oxo-1,4,5,6-tetrahydropyridazin-3-yl)phenoxy]butyl]-4,4-dimethyl-2,4-dihydro-pyrazol-3-one] | ≥ 90% | 0.1 to 1 µmol/L | 0.01 to 0.1 µmol/L
COc1ccc(C2=NN(CCCCOc3ccc(C4=NNC(=O)CC4C)cc3)C(=O)C2(C)C)c2ccc(C(C)C)nc12 (stereo not drawn) [Example 195, 5-(8-Methoxy-2-isopropylquinolin-5-yl)-2-[4-[4-(4-methyl-6-oxo-1,4,5,6-tetrahydropyridazin-3-yl)phenoxy]butyl]-4,4-dimethyl-2,4-dihydro-pyrazol-3-one] | – | < 0.01 µmol/L | 0.1 to 1 µmol/L
COc1ccc(C2=NN(CCCCOc3ccc(C4=NNC(=O)CC4C)cc3)C(=O)C2(C)C)c2ccc(C)nc12 (stereo not drawn) [Example 193, 5-(8-Methoxy-2-methylquinolin-5-yl)-2-[4-[4-(4-methyl-6-oxo-1,4,5,6-tetrahydropyridazin-3-yl)phenoxy]butyl]-4,4-dimethyl-4,4-dihydro-pyrazol-3-one] | ≥ 90% | 0.01 to 0.1 µmol/L | 0.01 to 0.1 µmol/L
COc1ccc(C2=NN(CCCCOc3ccc(C4=NNC(=O)CC4)c(F)c3F)C(=O)C2(C)C)n2cc(C(F)(F)F)nc12 [Example 235, 2-[4-[2,3-Difluoro-4-(6-oxo-1,4,5,6-tetrahydropyridazin-3-yl)phenoxy]butyl]-5-(8-methoxy-2-trifluoromethylimidazo[1,2-a]pyridin-5-yl)-4,4-dimethyl-2,4-dihydro-pyrazol-3-one] | 80 to 90% | < 0.01 µmol/L | < 0.01 µmol/L
CCc1cc2c(C3=NN(CCCCOc4ccc(C5=NNC(=O)CC5)c(F)c4F)C(=O)C3(C)C)ccc(OC)n2c1 [Example 232, 5-(2-Ethyl-5-methoxyindolidin-8-yl)-2-[4-[2,3-difluoro-4-(6-oxo-1,4,5,6-tetrahydropyridazin-3-yl)phenoxy]butyl]-4,4-dimethyl-2,4-dihydro-pyrazol-3-one] | – | < 0.01 µmol/L | 0.01 to 0.1 µmol/L
COc1ccc(C2=NN(CCCCOc3ccc(C4=NNC(=O)CC4C)c(F)c3F)C(=O)C2(C)C)c2nc(C(F)(F)F)nn12 (stereo not drawn) [Example 225, 2-[4-[2,3-Difluoro-4-(4-methyl-6-oxo-1,4,5,6-tetrahydropyridazin-3-yl)phenoxy]butyl]-5-(5-methoxy-2-trifluoromethyl-[1,2,4]triazolo[1,5-a]pyridin-8-yl)-4,4-dimethyl-2,4-dihydro-pyrazol-3-one] | – | < 0.01 µmol/L | 0.01 to 0.1 µmol/L
CCc1ccc2c(C3=NN(CCCCOc4ccc(C5=NNC(=O)C5(C)C)cc4OC)C(=O)C3(C)C)ccc(OC)c2n1 [Example 204, 5-(2-Ethyl-8-methoxyquinolin-5-yl)-2-[4-[2-methoxy-4-(4,4-dimethyl-5-oxo-4,5-dihydro-1H-pyrazol-3-yl)phenoxy]butyl]-4,4-dimethyl-2,4-dihydro-pyrazol-3-one] | – | 0.1 to 1 µmol/L | 0.1 to 1 µmol/L
COc1ccc(C2=NN(CCCCOc3ccc(C4=NNC(=O)C4(C)C)c(F)c3F)C(=O)C2(C)C)c2sc(C(F)(F)F)nc12 [Example 230, 2-[4-[2,3-Difluoro-4-(4,4-dimethyl-5-oxo-4,5-dihydro-1H-pyrazol-3-yl)phenoxy]butyl]-5-(4-methoxy-2-trifluoromethylbenzo[d]thiazol-7-yl)-4,4-dimethyl-2,4-dihydro-pyrazol-3-one] | – | 0.01 to 0.1 µmol/L | < 0.01 µmol/L
CCc1cc2c(C3=NN(CCCCOc4ccc(C5=NNC(=O)C5(C)C)c(F)c4F)C(=O)C3(C)C)ccc(OC)n2c1 [Example 233, 5-(2-Ethyl-5-methoxyindolidin-8-yl)-2-[4-[2,3-difluoro-4-(4,4-dimethyl-5-oxo-4,5-dihydro-1H-pyrazol-3-yl)phenoxy]butyl]-4,4-dimethyl-2,4-dihydro-pyrazol-3-one] | – | 0.01 to 0.1 µmol/L | 0.1 to 1 µmol/L
COc1ccc(C2=NN(CCCCOc3ccc(C4=NNC(=O)CC4C)c(F)c3F)C(=O)C2(C)C)c2cc(C(F)(F)F)oc12 (stereo not drawn) [Example 218, 2-[4-[2,3-Difluoro-4-(4-methyl-6-oxo-1,4,5,6-tetrahydropyridazin-3-yl)phenoxy]butyl]-5-(7-methoxy-2-trifluoromethylbenzofuran-4-yl)-4,4-dimethyl-2,4-dihydro-pyrazol-3-one] | – | < 0.01 µmol/L | < 0.01 µmol/L
COc1ccc(C2=NN(CCCCOc3ccc(C4=NNC(=O)C4(C)C)c(F)c3F)C(=O)C2(C)C)c2cc(C(F)(F)F)oc12 [Example 217, 2-[4-[2,3-Difluoro-4-(4,4-dimethyl-5-oxo-4,5-dihydro-1H-pyrazol-3-yl)phenoxy]butyl]-5-(7-methoxy-2-trifluoromethylbenzofuran-4-yl)-4,4-dimethyl-2,4-dihydro-pyrazol-3-one] | – | 0.1 to 1 µmol/L | < 0.01 µmol/L
CCc1ccc2c(C3=NN(CCOc4ccc(C5=NNC(=O)CC5C)c(F)c4F)C(=O)C3(C)C)ccc(OC)c2n1 (stereo not drawn) [Example 242, 5-(2-Ethyl-8-methoxyquinolin-5-yl)-2-[4-[2,3-difluoro-4-(4-methyl-6-oxo-1,4,5,6-tetrahydropyridazin-3-yl)phenoxy]ethyl]-4,4-dimethyl-2,4-dihydro-pyrazol-3-one] | – | < 0.01 µmol/L | 0.01 to 0.1 µmol/L
CCc1ccc2c(C3=NN(CCCCOc4ccc(C5=NNC(=O)CC5C)cc4OC)C(=O)C3(C)C)ccc(OC)c2n1 (stereo not drawn) [Example 208, 5-(2-Ethyl-8-methoxyquinolin-5-yl)-2-[4-[2-methoxy-4-(4-methyl-6-oxo-1,4,5,6-tetrahydropyridazin-3-yl)phenoxy]butyl]-4,4-dimethyl-2,4-dihydro-pyrazol-3-one] | – | 0.01 to 0.1 µmol/L | 0.1 to 1 µmol/L
COc1ccc(C2=NN(CCCCOc3ccc(C4=NNC(=O)CC4)c(F)c3F)C(=O)C2(C)C)c2nc(C(F)(F)F)nn12 [Example 226, 2-[4-[2,3-Difluoro-4-(6-oxo-1,4,5,6-tetrahydropyridazin-3-yl)phenoxy]butyl]-5-(5-methoxy-2-trifluoromethyl-[1,2,4]triazolo[1,5-a]pyridin-8-yl)-4,4-dimethyl-2,4-dihydro-pyrazol-3-one] | – | < 0.01 µmol/L | 0.01 to 0.1 µmol/L
CCc1cc2c(C3=NN(CCCCOc4ccc(C5=NNC(=O)CC5C)c(F)c4F)C(=O)C3(C)C)ccc(OC)n2c1 (stereo not drawn) [Example 231, 5-(2-Ethyl-5-methoxyindolidin-8-yl)-2-[4-[2,3-difluoro-4-(4-methyl-6-oxo-1,4,5,6-tetrahydropyridazin-3-yl)phenoxy]butyl]-4,4-dimethyl-2,4-dihydro-pyrazol-3-one] | – | < 0.01 µmol/L | 0.1 to 1 µmol/L
COc1ccc(C2=NN(CCCCOc3ccc(C4=NNC(=O)C4(C)C)c(F)c3F)C(=O)C2(C)C)c2nc(C(F)(F)F)nn12 [Example 227, 2-[4-[2,3-Difluoro-4-(4,4-dimethyl-5-oxo-4,5-dihydro-1H-pyrazol-3-yl)phenoxy]butyl]-5-(5-methoxy-2-trifluoromethyl-[1,2,4]triazolo[1,5-a]pyridin-8-yl)-4,4-dimethyl-2,4-dihydro-pyrazol-3-one] | – | 0.01 to 0.1 µmol/L | 0.1 to 1 µmol/L
CCc1ccc2c(C3=NN(CCCCOc4ccc(C5=NNC(=O)C5(C)C)cc4)C(=O)C3(C)C)ccc(OC)c2n1 [Example 201, 5-(2-Ethyl-8-methoxyquinolin-5-yl)-2-[4-[4-(4,4-dimethyl-5-oxo-4,5-dihydro-1H-pyrazol-3-yl)phenoxy]butyl]-4,4-dimethyl-2,4-dihydro-pyrazol-3-one] | – | 0.1 to 1 µmol/L | 0.01 to 0.1 µmol/L
